Where two headings read alike, the source gives them in different places. Each block holds one molecule with its values, some of them ahead of it.
Experiments:
[1] = target: T1, lysine acetyltransferase 8 (KAT8) (Homo sapiens, UniProt Q9H7Z6); assay: KAT8 activity assay; type: biochemical; conditions: N.I. = no inhibition
T1 sequence (Q9H7Z6 1-458): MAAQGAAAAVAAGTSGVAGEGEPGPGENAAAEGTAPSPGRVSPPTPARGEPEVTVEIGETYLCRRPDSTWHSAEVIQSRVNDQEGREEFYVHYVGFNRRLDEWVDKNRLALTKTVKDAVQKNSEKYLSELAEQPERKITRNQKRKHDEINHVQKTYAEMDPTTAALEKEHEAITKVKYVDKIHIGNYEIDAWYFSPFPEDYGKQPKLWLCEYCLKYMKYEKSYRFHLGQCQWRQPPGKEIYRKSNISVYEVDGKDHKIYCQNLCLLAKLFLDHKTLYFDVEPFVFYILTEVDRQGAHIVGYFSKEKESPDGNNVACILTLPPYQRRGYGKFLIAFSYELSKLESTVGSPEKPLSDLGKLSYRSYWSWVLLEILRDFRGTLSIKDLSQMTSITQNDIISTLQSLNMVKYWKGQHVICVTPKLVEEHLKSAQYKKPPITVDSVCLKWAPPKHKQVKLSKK

HDAC1 = HDAC1 (Homo sapiens, UniProt Q13547); assay: human recombinant HDAC inhibition assay; type: biochemical; conditions: N.I. = no inhibition
HDAC2 = HDAC2 (Homo sapiens, UniProt Q92769); assay: human recombinant HDAC inhibition assay and Lineweaver-Burk plots; type: biochemical
HDAC3 = HDAC3 (Homo sapiens, UniProt O15379); assay: human recombinant HDAC inhibition assay; type: biochemical; conditions: read-out: Ki value HDAC3
HDAC6 = target: T2, HDAC6 (Homo sapiens, UniProt Q9UBN7); assay: human recombinant HDAC inhibition assay and Lineweaver-Burk plots; type: biochemical
T2 sequence (Q9UBN7 1-1215): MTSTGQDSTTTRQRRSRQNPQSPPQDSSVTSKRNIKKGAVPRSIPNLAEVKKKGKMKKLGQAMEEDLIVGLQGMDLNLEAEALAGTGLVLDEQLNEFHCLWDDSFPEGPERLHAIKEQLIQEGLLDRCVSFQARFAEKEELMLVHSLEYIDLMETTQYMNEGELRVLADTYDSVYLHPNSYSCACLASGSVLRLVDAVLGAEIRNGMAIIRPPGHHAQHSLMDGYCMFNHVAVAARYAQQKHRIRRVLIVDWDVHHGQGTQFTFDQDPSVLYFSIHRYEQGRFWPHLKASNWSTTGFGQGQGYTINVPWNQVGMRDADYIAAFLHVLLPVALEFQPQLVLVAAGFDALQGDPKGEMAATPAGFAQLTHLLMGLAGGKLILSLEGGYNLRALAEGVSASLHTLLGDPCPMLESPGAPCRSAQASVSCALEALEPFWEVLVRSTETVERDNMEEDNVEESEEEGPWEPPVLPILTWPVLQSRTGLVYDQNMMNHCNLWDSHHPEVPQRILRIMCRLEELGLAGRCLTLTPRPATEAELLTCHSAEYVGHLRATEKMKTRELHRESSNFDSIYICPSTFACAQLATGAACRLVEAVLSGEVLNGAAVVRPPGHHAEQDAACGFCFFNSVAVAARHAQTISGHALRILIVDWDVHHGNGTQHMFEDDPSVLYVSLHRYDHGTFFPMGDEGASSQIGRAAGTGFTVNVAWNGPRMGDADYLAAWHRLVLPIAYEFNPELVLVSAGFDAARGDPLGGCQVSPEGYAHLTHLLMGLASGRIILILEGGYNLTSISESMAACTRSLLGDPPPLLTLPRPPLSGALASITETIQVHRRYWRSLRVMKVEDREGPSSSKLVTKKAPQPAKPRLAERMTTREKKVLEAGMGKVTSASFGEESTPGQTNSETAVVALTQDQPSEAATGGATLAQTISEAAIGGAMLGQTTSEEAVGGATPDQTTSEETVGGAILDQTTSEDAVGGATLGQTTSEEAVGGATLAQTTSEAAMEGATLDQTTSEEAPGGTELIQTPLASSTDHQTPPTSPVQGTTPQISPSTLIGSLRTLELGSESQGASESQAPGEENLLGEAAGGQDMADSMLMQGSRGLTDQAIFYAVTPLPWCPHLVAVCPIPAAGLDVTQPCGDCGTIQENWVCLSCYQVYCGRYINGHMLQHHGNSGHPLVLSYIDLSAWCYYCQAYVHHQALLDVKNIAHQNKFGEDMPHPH

HDAC8 = target: T3, HDAC8 (Homo sapiens, UniProt Q9BY41); assay: human recombinant HDAC inhibition assay; type: biochemical; conditions: read-out: Ki value HDAC8
T3 sequence (Q9BY41 1-377): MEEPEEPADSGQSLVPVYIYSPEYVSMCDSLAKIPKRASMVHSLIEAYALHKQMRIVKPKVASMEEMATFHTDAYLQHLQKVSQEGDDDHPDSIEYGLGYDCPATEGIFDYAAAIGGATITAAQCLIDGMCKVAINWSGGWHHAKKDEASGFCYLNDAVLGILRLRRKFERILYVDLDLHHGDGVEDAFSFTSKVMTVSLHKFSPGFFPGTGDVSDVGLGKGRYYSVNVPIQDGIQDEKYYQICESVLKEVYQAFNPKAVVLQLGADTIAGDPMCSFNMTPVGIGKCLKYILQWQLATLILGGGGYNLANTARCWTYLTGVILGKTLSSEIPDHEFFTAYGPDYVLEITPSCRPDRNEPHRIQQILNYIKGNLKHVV

[2] = tested on: NF-κB promoter activity in RAW-Blue macrophages; assay: RAW-Blue NF-κB reporter gene assay; type: cell-based, murine; conditions: 16 hrs pre-treatment + 4 hrs stimulus
[3] = tested on: RAW264.7 murine macrophages; assay: Gene expression analysis in RAW264.7 by RT-q-PCR after LPS and IFNγ stimulus; type: cell-based
[4] = tested on: murine precision-cut lung slices (PCLS); type: cell-based
[5] = tested on: histone H3 and H4 acetylation in RAW264.7 cells; assay: Histone acetylation by acetic anhydride-d6 labelling and LC-MS/MS; type: cell-based, murine
[6] = tested on: α-tubulin acetylation in RAW264.7 cells; assay: α-tubulin acetylation immunoblot; type: cell-based, murine
RAW264.7 macrophages = assay: Viability assay; type: cell-based, murine; conditions: C646 concentrations above 30 μM, 20 hrs
[7] = tested on: precision-cut lung slices (PCLS); assay: PCLS viability by lactate dehydrogenase; type: cell-based, murine; conditions: C646 concentrations above 25 μM
type I and II HDACs = assay: recombinant HDAC inhibition, summary over isoenzymes; type: biochemical, human
[8] = Boc-Lys-(Ac)-AMC as substrate, Lineweaver-Burk plot
[9] = RAW264.7, C646 at 30 μM, downregulation
[10] = C646 at 15, 20, 25 or 30 μM for 6 hrs

Sequence of HDAC2 (Q92769 whole entry): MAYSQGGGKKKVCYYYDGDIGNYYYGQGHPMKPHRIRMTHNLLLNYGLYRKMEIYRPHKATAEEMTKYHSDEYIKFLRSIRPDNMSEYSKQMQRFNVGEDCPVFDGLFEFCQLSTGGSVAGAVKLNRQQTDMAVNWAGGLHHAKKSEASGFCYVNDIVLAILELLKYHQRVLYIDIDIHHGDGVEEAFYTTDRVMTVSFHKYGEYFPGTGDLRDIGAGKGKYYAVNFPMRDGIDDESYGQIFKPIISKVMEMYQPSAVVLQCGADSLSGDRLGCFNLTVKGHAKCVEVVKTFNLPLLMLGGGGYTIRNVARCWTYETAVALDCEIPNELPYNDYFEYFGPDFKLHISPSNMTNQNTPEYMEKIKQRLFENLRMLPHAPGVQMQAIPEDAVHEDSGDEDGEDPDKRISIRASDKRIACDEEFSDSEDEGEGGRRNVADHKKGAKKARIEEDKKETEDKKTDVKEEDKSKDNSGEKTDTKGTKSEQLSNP
Sequence of HDAC1 (Q13547 whole entry): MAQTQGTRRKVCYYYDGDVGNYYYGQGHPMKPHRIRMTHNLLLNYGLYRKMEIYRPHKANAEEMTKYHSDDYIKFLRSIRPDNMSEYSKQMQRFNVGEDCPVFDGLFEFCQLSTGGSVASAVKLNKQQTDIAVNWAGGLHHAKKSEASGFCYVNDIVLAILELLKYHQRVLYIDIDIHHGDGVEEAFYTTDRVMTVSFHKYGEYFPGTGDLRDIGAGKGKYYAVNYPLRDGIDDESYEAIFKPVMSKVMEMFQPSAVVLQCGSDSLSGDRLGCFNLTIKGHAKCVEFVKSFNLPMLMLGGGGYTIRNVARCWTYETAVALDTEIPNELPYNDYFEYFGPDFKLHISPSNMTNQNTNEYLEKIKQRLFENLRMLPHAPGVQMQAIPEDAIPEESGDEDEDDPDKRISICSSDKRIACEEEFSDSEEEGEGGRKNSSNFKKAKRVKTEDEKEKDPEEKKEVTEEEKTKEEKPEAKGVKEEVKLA
Sequence of HDAC3 (O15379 whole entry): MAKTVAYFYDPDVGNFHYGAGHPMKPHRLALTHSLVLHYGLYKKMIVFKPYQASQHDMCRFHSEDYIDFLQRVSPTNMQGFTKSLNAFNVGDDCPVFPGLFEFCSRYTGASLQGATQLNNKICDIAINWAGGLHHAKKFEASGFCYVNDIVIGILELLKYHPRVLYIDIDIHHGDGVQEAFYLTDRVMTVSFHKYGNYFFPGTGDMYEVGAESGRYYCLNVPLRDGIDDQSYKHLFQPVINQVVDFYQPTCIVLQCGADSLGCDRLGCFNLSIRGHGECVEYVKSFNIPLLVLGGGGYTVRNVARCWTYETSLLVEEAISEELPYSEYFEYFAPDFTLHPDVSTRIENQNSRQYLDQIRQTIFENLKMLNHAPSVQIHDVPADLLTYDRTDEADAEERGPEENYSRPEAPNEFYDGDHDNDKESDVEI
Sequence of HDAC3 (Q9Y618 395-489 partner limits assumed): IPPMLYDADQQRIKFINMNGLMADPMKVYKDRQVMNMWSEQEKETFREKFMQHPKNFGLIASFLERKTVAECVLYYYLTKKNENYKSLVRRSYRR

- Ki value KAT8 [1]: N.I.
- Ki value HDAC1 (HDAC1): N.I.
- kinetics of inhibition of HDAC2 (HDAC2; [8]): non-competitive inhibition
- Ki (HDAC2; read-out: Ki value HDAC2): 15 ± 1 µM
- Ki (HDAC3): 25 ± 5 µM
- kinetics of inhibition of HDAC6 (HDAC6; [8]): non-competitive inhibition
- Ki (HDAC6; read-out: Ki value HDAC6): 7 ± 1 µM
- Ki (HDAC8): 11 ± 1 µM
- concentration from which histone deacetylases are inhibited (type I and II HDACs): ≥ 7 µM
Structure (SMILES): CC1=NN(c2ccc(C(=O)O)cc2)C(=O)/C1=C\c1ccc(-c2cc(C)c(C)cc2[N+](=O)[O-])o1 [C646]
- LPS and IFNγ induced NF-κB promoter activity ([2]; C646 at 15 μM or higher (up to 30 μM)): significant inhibition
- percentage of change in IL-12b gene expression compared to vehicle [3, 9]: 54.2%
- percentage of change in TNFα gene expression compared to vehicle [3, 9]: 54.1%
- percentage of change in IL-1β gene expression compared to vehicle ([4]; C646 at 25 μM, downregulation): 72.3%
- percentage of change in IL-12b gene expression compared to vehicle ([4]; C646 at 25 μM, downregulation): 85.0%
- percentage of change in TNFα gene expression compared to vehicle ([4]; C646 at 25 μM, downregulation): 79.1%
- percentage of change in iNOS gene expression compared to vehicle ([4]; C646 at 25 μM, downregulation): 58.4%
- acetylation status of histone H3 res. 18-26 (H3 K18 and H3 K23) ([5]; C646 30 μM for 6 hrs): small yet significant increase
- acetylation status of histone H4 res. 4-17 [5, 10]: No significant changes
- acetylation status of other histone H4 peptides [5, 10]: no changes in acetylation status
- histone acetylation (H3 res. 18-26, H4 res. 4-17) ([5]; C646 at 15, 20, 25 or 30 μM for 20 hrs, no inflammatory stimulus): No changes in histone acetylation
- acetylation status of histone H3 res. 18-26 (H3 K18 and H3 K23) ([5]; C646 at concentrations lower than 30 μM for 6 hrs): not significant
- α-tubulin acetylation ([6]; C646 15 μM for 6 hrs): but not at 15 μM
- α-tubulin acetylation ([6]; C646 30 μM for 6 hrs): pronounced inhibition
- α-tubulin acetylation ([6]; C646 30 μM for 20 hrs): inhibition of α-tubulin acetylation was also observed
- viability of the macrophages (RAW264.7 macrophages): decreased viability
- viability of PCLS [7]: decreased viability

Structure (SMILES): O=C(CCCCCCC(=O)Nc1ccccc1)NO [SAHA, suberanilohydroxamic acid]
- LPS and IFNγ induced NF-κB promoter activity ([2]; SAHA 0.41 μM): further enhanced
- percentage of change in IL-1β gene expression compared to vehicle ([3]; RAW264.7, SAHA at 0.41 μM, upregulation): 317%
- percentage of change in iNOS gene expression compared to vehicle ([4]; SAHA at 0.41 μM, downregulation): 39.9%
- percentage of change in IL-1β gene expression compared to vehicle ([4]; SAHA at 0.41 μM, upregulation): 41.5%
- percentage of change in IL-6 gene expression compared to vehicle ([4]; SAHA at 0.41 μM, upregulation): 58.8%
- acetylation of histone-derived peptides H4 4-17 and H3 18-26 ([5]; SAHA 0.41 µM for 20 hrs): increased acetylation
- α-tubulin acetylation ([6]; SAHA, data not shown): upregulated

Source: article PMC4871277 (Biochemical pharmacology, 2015)
